Results from ChEMBL document CHEMBL4330153, “In Vivo Anti-inflammatory and Antiallergic Activity of Pure Naringenin, Naringenin Chalcone, and Quercetin in Mice” (2019).
Active and inactive are the calls of the source. The rule behind the calls is not given here.

Columns and labels:
Mus musculus [1] = test: Antiallergic activity in CD-1 mouse model of IgE/DNP-BSA-stimulated passive cutaneous anaphylaxis assessed as inhibition of vascular permeability at 5% administered topically immediately after sensitization by Evans blue extravasation assay; type: functional, organism-based
Mus musculus [2] = test: Antiallergic activity in CD-1 mouse model of IgE/DNP-BSA-stimulated passive cutaneous anaphylaxis assessed as inhibition of vascular permeability at 0.1% administered topically immediately after sensitization by Evans blue extravasation assay; type: functional, organism-based
Mus musculus [3] = test: Antiallergic activity in CD-1 mouse model of IgE/DNP-BSA-stimulated passive cutaneous anaphylaxis assessed as inhibition of vascular permeability at 1% administered topically immediately after sensitization by Evans blue extravasation assay relative to control; type: functional, organism-based
Mus musculus [4] = test: (§1) Anti-inflammatory activity in arachidonic acid-induced CD-1 mouse ear edema model assessed as inhibition of ear edema thickness at 1% administered topically immediately after arachidonic acid treatment and measured 1 hr post arachidonic acid treatment relative to control; type: functional
Mus musculus [5] = test: as §1, with “tetradecanoylphorbol-13-acetate-induced” for “arachidonic acid-induced”, “tetradecanoylphorbol-13-acetate” for “arachidonic acid”, “4 hrs” for “1 hr”; type: functional
Mus musculus [6] = test: Antiallergic activity in CD-1 mouse model of IgE/DNP-BSA-stimulated passive cutaneous anaphylaxis assessed as inhibition of vascular permeability at 4% administered topically as oil-in-water emulsion immediately after sensitization by Evans blue extravasation assay relative to control; type: functional, organism-based
Mus musculus [7] = test: Antiallergic activity in CD-1 mouse model of IgE/DNP-BSA-stimulated passive cutaneous anaphylaxis assessed as inhibition of vascular permeability at 2% administered topically immediately after sensitization by Evans blue extravasation assay relative to control; type: functional
Mus musculus [8] = test: Antiallergic activity in CD-1 mouse model of IgE/DNP-BSA-stimulated passive cutaneous anaphylaxis assessed as inhibition of vascular permeability at 0.2%, iv administered immediately after sensitization by Evans blue extravasation assay; type: functional, organism-based
Mus musculus [9] = test: Antiallergic activity in mouse model of picryl-chloride-induced […] allergy at 0.8 mg/kg, po for 5 days relative to control; type: functional
Mus musculus [10] = test: (§2) Anti-inflammatory activity in arachidonic acid-induced CD-1 mouse ear edema model assessed as inhibition of ear edema thickness at 2% administered topically immediately after arachidonic acid treatment and measured 1 hr post arachidonic acid treatment relative to control; type: functional
Mus musculus [11] = test: Antiallergic activity in CD-1 mouse model of IgE/DNP-BSA-stimulated passive cutaneous anaphylaxis assessed as inhibition of vascular permeability at 0.02%, iv administered immediately after sensitization by Evans blue extravasation assay relative to control; type: functional
Mus musculus [12] = test: Antiallergic activity in mouse model of IgE/DNP-BSA-stimulated passive cutaneous anaphylaxis at 5 mg/kg, ip administered as single dose relative to control; type: functional
Mus musculus [13] = test: as §1, with “tetradecanoylphorbol-13-acetate-induced” for “arachidonic acid-induced”, “0.5%” for “1%”, “tetradecanoylphorbol-13-acetate” for “arachidonic acid”, “4 hrs” for “1 hr”; type: functional
Mus musculus [14] = test: as §2, with “tetradecanoylphorbol-13-acetate-induced” for “arachidonic acid-induced”, “tetradecanoylphorbol-13-acetate” for “arachidonic acid”, “4 hrs” for “1 hr”; type: functional
Mus musculus [15] = test: Anti-inflammatory activity in arachidonic acid-induced CD-1 mouse ear edema model assessed as inhibition of ear edema thickness administered topically immediately after arachidonic acid treatment and measured 1 hr post arachidonic acid treatment; type: functional, organism-based
Mus musculus [16] = test: Anti-inflammatory activity in tetradecanoylphorbol-13-acetate-induced CD-1 mouse ear edema model assessed as inhibition of ear edema thickness administered topically immediately after tetradecanoylphorbol-13-acetate treatment and measured 4 hrs post tetradecanoylphorbol-13-acetate treatment; type: functional, organism-based
Mus musculus [17] = test: Anti-inflammatory activity in tetradecanoylphorbol-13-acetate-induced CD-1 mouse ear edema model assessed as inhibition of ear edema thickness at 1.3% administered topically immediately after tetradecanoylphorbol-13-acetate treatment and measured 4 hrs post tetradecanoylphorbol-13-acetate treatment; type: functional, organism-based
Mus musculus [18] = test: Anti-inflammatory activity in arachidonic acid-induced CD-1 mouse ear edema model assessed as inhibition of ear edema thickness at 1.3% administered topically immediately after arachidonic acid treatment and measured 1 hr post arachidonic acid treatment; type: functional, organism-based

CC(c1cc2ccccc2s1)N(O)C(N)=O (centres undefined) was tested, and the inhibition (Mus musculus [1]) was “Active”.

CCC(=O)O[C@]1(C(=O)COC(C)=O)CC[C@H]2[C@@H]3C[C@H](C)C4=CC(=O)C=C[C@]4(C)[C@H]3[C@@H](O)C[C@@]21C was tested, and the inhibition (Mus musculus [2]) was “Active”.

CN(C)CCC(c1ccc(Cl)cc1)c1ccccn1 (centres undefined) was tested, and the inhibition (Mus musculus [3]) was “Active”.

With O=C(O)Cc1ccccc1Nc1c(Cl)cccc1Cl the inhibition (Mus musculus [4]) was “Active” and the inhibition (Mus musculus [5]) was “Active”.

For O=C(O)c1cc(=O)c2c(OCC(O)COc3cccc4oc(C(=O)O)cc(=O)c34)cccc2o1, the inhibition (Mus musculus [6]) was “inactive”, the inhibition (Mus musculus [7]) was “inactive” and the inhibition (Mus musculus [8]) was “Active”.

In the case of O=C(/C=C/c1ccc(O)cc1)c1c(O)cc(O)cc1O [4,2',4',6'-TETRAHYDROXYCHALCONE], the Activity (Mus musculus [9]) is reported as 47%, the “inhibition (INH)” value (Mus musculus [10]) is reported as 42% and the “inhibition (INH)” value (Mus musculus [5]) is reported as 27%. For the same molecule, the “inhibition (INH)” value (Mus musculus [11]) was 68% and the “inhibition (INH)” value (Mus musculus [7]) was 55%.

O=C1C[C@@H](c2ccc(O)cc2)Oc2cc(O)cc(O)c21 [NARINGENIN] was tested, and the Activity (Mus musculus [12]) was 70%, the Activity (Mus musculus [9]) was 15% and the “inhibition (INH)” value (Mus musculus [10]) was 56%. For the same molecule, the “inhibition (INH)” value (Mus musculus [4]) was 22%, the “inhibition (INH)” value (Mus musculus [13]) was 32% and the “inhibition (INH)” value (Mus musculus [5]) was 56%. The “inhibition (INH)” value (Mus musculus [11]) was 56%, the “inhibition (INH)” value (Mus musculus [14]) was 62% and the “inhibition (INH)” value (Mus musculus [7]) was 42%. The inhibition (Mus musculus [15]) was “Dose-dependent effect” and the inhibition (Mus musculus [16]) was “Dose-dependent effect”.

With O=c1c(O)c(-c2ccc(O)c(O)c2)oc2cc(O)cc(O)c12 [QUERCETIN] the inhibition (Mus musculus [17]) was “Active”, the Activity (Mus musculus [9]) was 15% and the “inhibition (INH)” value (Mus musculus [11]) was 80%. The “inhibition (INH)” value (Mus musculus [7]) was 34% and the inhibition (Mus musculus [18]) was “inactive”.
